Experimental data: PubChem BioAssay AID256 (DTP/NCI, 2004)
“And” between values parts separate entries of the source, which are not always exact repeats. Identical values can stand only once. Toxic doses and inconclusive results are not listed. Rule for the calls: active = survival T/C of 150% or more; inactive = T/C below 125% in these data.

System: CD2F1 mice, L1210 leukemia ip, survival T/C
Experiment: NCI In Vivo Anticancer Drug Screen. Data for tumor model L1210 Leukemia (intraperitoneal) in CD2F1 (CDF1) mice
Settings: endpoint: mean survival time, higher = longer survival
Summary of the method: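 Compound-dosed mice with transplantable tumor versus matched vehicle controls; endpoint ratio T/C reported.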

[1] = dose: 25.0 mg/kg/injection, schedule: Q04DX002 (ip), vehicle: saline with Tween-80
[2] = dose: 50.0 mg/kg/injection, schedule: Q04DX002 (ip), vehicle: saline with Tween-80
[3] = dose: 100.0 mg/kg/injection, schedule: Q01DX001 (ip), vehicle: saline with Tween-80
[4] = dose: 100.0 mg/kg/injection, schedule: Q01DX009 (ip), vehicle: saline with Tween-80
[5] = dose: 200.0 mg/kg/injection, schedule: Q01DX001 (ip), vehicle: saline with Tween-80
[6] = dose: 200.0 mg/kg/injection, schedule: Q01DX009 (ip), vehicle: saline with Tween-80
[7] = dose: 400.0 mg/kg/injection, schedule: Q01DX001 (ip), vehicle: saline with Tween-80
[8] = dose: 400.0 mg/kg/injection, schedule: Q01DX009 (ip), vehicle: saline with Tween-80
[9] = dose: 100.0 mg/kg/injection, schedule: Q04DX002 (ip), vehicle: saline with Tween-80
[10] = dose: 200.0 mg/kg/injection, schedule: Q04DX002 (ip), vehicle: saline with Tween-80
[11] = dose: 400.0 mg/kg/injection, schedule: Q04DX002 (ip), vehicle: saline with Tween-80
[12] = dose: 200.0 mg/kg/injection, schedule: Q04DX003 (ip), vehicle: saline with Tween-80
[13] = dose: 400.0 mg/kg/injection, schedule: Q04DX003 (ip), vehicle: saline with Tween-80
[14] = dose: 100.0 mg/kg/injection, schedule: Q04DX003 (ip), vehicle: saline with Tween-80
[15] = dose: 12.5 mg/kg/injection, schedule: Q01DX009 (ip), vehicle: saline with Tween-80
[16] = dose: 25.0 mg/kg/injection, schedule: Q01DX009 (ip), vehicle: saline with Tween-80
[17] = dose: 50.0 mg/kg/injection, schedule: Q01DX009 (ip), vehicle: saline with Tween-80
[18] = dose: 100.0 mg/kg/injection, schedule: Q01DX001 (ip), vehicle: saline
[19] = dose: 200.0 mg/kg/injection, schedule: Q01DX001 (ip), vehicle: saline
[20] = dose: 400.0 mg/kg/injection, schedule: Q01DX001 (ip), vehicle: saline
[21] = dose: 50.0 mg/kg/injection, schedule: Q01DX009 (ip), vehicle: Klucel (hydroxypropylcellulose) (HPC)
[22] = dose: 25.0 mg/kg/injection, schedule: Q01DX009 (ip), vehicle: Klucel (hydroxypropylcellulose) (HPC)
[23] = dose: 100.0 mg/kg/injection, schedule: Q01DX009 (ip), vehicle: Klucel (hydroxypropylcellulose) (HPC)
[24] = dose: 200.0 mg/kg/injection, schedule: Q01DX009 (ip), vehicle: Klucel (hydroxypropylcellulose) (HPC)
[25] = dose: 400.0 mg/kg/injection, schedule: Q01DX009 (ip), vehicle: Klucel (hydroxypropylcellulose) (HPC)

Measured: T/C

O=C1CCCN1c1ccc([N+](=O)[O-])cc1
inactive: dose: 12.5 mg/kg/injection, schedule: Q04DX002 (ip), vehicle: saline with Tween-80 102 % of control | [1] 102 % of control | [2] 102 % of control | [3] 110 % of control | [4] 98 % of control | [5] 104 % of control | [6] 98 % of control | [7] 101 % of control | [8] 106 % of control

COC1OCC(OS(C)(=O)=O)C(OS(C)(=O)=O)C1OS(C)(=O)=O (stereo unspecified)
inactive: [3] 96 % of control | [4] 95 % of control and 100 % of control | [5] 97 % of control | [6] 96 % of control and 94 % of control | [7] 100 % of control | [8] 93 % of control and 96 % of control

Cc1ccc(S(=O)(=O)N=S(C)(C)=O)cc1
inactive: [9] 98 % of control | [10] 94 % of control | [11] 94 % of control

COc1ccc(C(C)N=CC(C)(C)C)cc1 (stereo unspecified)
inactive: [12] 100 % of control | [13] 88 % of control

CC(C)C(NC(=O)OC(C)(C)C)C(=O)ON1C(=O)CCC1=O (stereo unspecified)
inactive: [14] 104 % of control | [12] 100 % of control

Clc1cc(CBr)c(CBr)cc1Cl
inactive: [15] 107 % of control | [16] 97 % of control | [17] 100 % of control

CCNc1nc(NC(C)C)nc(OC)n1
inactive: [17] 98 % of control | [4] 93 % of control | dose: 100.0 mg/kg/injection, schedule: Q04DX003 (ip), vehicle: saline 101 % of control | [6] 96 % of control | dose: 200.0 mg/kg/injection, schedule: Q04DX003 (ip), vehicle: saline 103 % of control

CCOC(=O)Nc1ccc(S(=O)(=O)O)cc1
inactive: [18] 94 % of control | [19] 105 % of control | [20] 98 % of control

C/C(=N/NC(=O)c1ccccc1)c1ccc(Cl)cc1Cl
inactive: [21] 89 % of control

CC1(C)CC(C)(OC(=O)c2ccccc2)[N+]([O-])=N1 (stereo unspecified)
inactive: [22] 100 % of control | [21] 98 % of control | [23] 98 % of control | [24] 95 % of control | [25] 98 % of control

O=C1OC(/C=C\c2ccccc2)=NC/1=C\c1cc(Br)cc(Br)c1O
inactive: [9] 94 % of control | [10] 98 % of control | [11] 105 % of control

O=C1CCC(C(=O)O)=NN1
inactive: dose: 12.5 mg/kg/injection, schedule: Q01DX009 (ip), vehicle: water 96 % of control | dose: 25.0 mg/kg/injection, schedule: Q01DX009 (ip), vehicle: water 101 % of control | dose: 50.0 mg/kg/injection, schedule: Q01DX009 (ip), vehicle: water 93 % of control | dose: 100.0 mg/kg/injection, schedule: Q01DX009 (ip), vehicle: water 93 % of control | dose: 200.0 mg/kg/injection, schedule: Q01DX009 (ip), vehicle: water 90 % of control

Cc1cc(N(CCOS(C)(=O)=O)CCOS(C)(=O)=O)ccc1C=Nc1ccc(C(=O)O)c(O)c1
inactive: dose: 4.0 mg/kg/injection, schedule: Q01DX009 (ip), vehicle: saline with Tween-80 118 % of control | dose: 6.0 mg/kg/injection, schedule: Q01DX009 (ip), vehicle: saline with Tween-80 111 % of control | [15] 123 % of control

NC(CCl)=NCCc1ccsc1
inactive: dose: 25.0 mg/kg/injection, schedule: Q04DX002 (ip), vehicle: saline 95 % of control | dose: 50.0 mg/kg/injection, schedule: Q04DX002 (ip), vehicle: saline 106 % of control | dose: 100.0 mg/kg/injection, schedule: Q04DX002 (ip), vehicle: saline 98 % of control and 112 % of control

O=C(O)C1(C(=O)O)CCCCC1.[NH-]CC1(C[NH-])CCCCC1.[Pt+2]
inactive: dose: 30.0 mg/kg/injection, schedule: Q04DX003 (ip), vehicle: suspension in saline 118 % of control | dose: 60.0 mg/kg/injection, schedule: Q04DX003 (ip), vehicle: suspension in saline 118 % of control

CCOC(=O)N1C(=O)C2C3CCC(O3)C2C1=O (stereo unspecified)
inactive: [1] 104 % of control | [2] 90 % of control | [9] 109 % of control

Brc1sc(Br)c(Br)c1Br
inactive: [3] 109 % of control | [4] 100 % of control | [5] 95 % of control | [6] 101 % of control | [7] 102 % of control | [8] 101 % of control

Cc1cc(C(O)(C(=O)O)c2ccccc2)cc(C)c1C (stereo unspecified)
inactive: dose: 75.0 mg/kg/injection, schedule: Q01DX001 (ip), vehicle: other 100 % of control | dose: 150.0 mg/kg/injection, schedule: Q01DX001 (ip), vehicle: other 90 % of control | dose: 300.0 mg/kg/injection, schedule: Q01DX001 (ip), vehicle: other 105 % of control

O=C1C2C3CCC(O3)C2C(=O)N1CO (stereo unspecified)
inactive: [1] 110 % of control | [2] 98 % of control | [9] 91 % of control

CCN(Cc1ccccc1)c1ccc(SC#N)cc1
inactive: [18] 100 % of control | [19] 100 % of control | [20] 93 % of control

C/C=C(\C)C(=O)O[C@@H]1c2cc3c(cc2-c2c(cc(OC)c(OC)c2OC)[C@@H]2C(=O)OC[C@@H]12)OCO3
inactive: dose: 1.25 mg/kg/injection, schedule: Q01DX009 (ip), vehicle: Klucel (hydroxypropylcellulose) (HPC) 112 % of control | dose: 2.5 mg/kg/injection, schedule: Q01DX009 (ip), vehicle: Klucel (hydroxypropylcellulose) (HPC) 106 % of control | dose: 5.0 mg/kg/injection, schedule: Q01DX009 (ip), vehicle: Klucel (hydroxypropylcellulose) (HPC) 106 % of control | dose: 10.0 mg/kg/injection, schedule: Q01DX009 (ip), vehicle: Klucel (hydroxypropylcellulose) (HPC) 95 % of control

O=C(O)CCCSc1nn(C2OC(CO)C(O)C2O)c(=O)[nH]c1=O (stereo unspecified)
inactive: dose: 12.5 mg/kg/injection, schedule: Q01DX005 (ip), vehicle: water 104 % of control | dose: 25.0 mg/kg/injection, schedule: Q01DX005 (ip), vehicle: water 104 % of control | dose: 50.0 mg/kg/injection, schedule: Q01DX005 (ip), vehicle: water 104 % of control | dose: 100.0 mg/kg/injection, schedule: Q01DX005 (ip), vehicle: water 101 % of control | dose: 200.0 mg/kg/injection, schedule: Q01DX005 (ip), vehicle: water 101 % of control

C=C(C)CC#N
inactive: dose: 50.0 mg/kg/injection, schedule: Q01DX009 (ip), vehicle: saline 92 % of control | dose: 100.0 mg/kg/injection, schedule: Q01DX009 (ip), vehicle: saline 95 % of control | dose: 200.0 mg/kg/injection, schedule: Q01DX009 (ip), vehicle: saline 100 % of control

CC(C)C(C(N)=O)C(N)=O
inactive: [9] 100 % of control | [10] 100 % of control

CC/C(=N/O)C(N)=O
inactive: [14] 100 % of control | [12] 103 % of control | [13] 105 % of control

Cc1ccc(C2=CSc3ccccc3N2)cc1
inactive: dose: 100.0 mg/kg/injection, schedule: Q04DX002 (ip), vehicle: other 104 % of control | dose: 200.0 mg/kg/injection, schedule: Q04DX002 (ip), vehicle: other 104 % of control

CC(C)c1cc(C(C)C)n2nc(N)nc2n1
inactive: [14] 106 % of control | [12] 98 % of control | [13] 97 % of control

COc1cc(OC)c(OC)cc1/C=C\c1ccnc2ccccc12
inactive: dose: 12.5 mg/kg/injection, schedule: Q01DX009 (ip), vehicle: Klucel (hydroxypropylcellulose) (HPC) 96 % of control | [22] 95 % of control | [21] 98 % of control | [23] 102 % of control | [24] 112 % of control | [25] 110 % of control

CC(C)C(=O)[O][Sn]([CH2]c1ccccc1)([CH2]c1ccccc1)[CH2]c1ccccc1
inactive: [16] 90 % of control | dose: 25.0 mg/kg/injection, schedule: Q04DX003 (ip), vehicle: saline with Tween-80 95 % of control | [17] 95 % of control | dose: 50.0 mg/kg/injection, schedule: Q04DX003 (ip), vehicle: saline with Tween-80 90 % of control | [14] 87 % of control
